Legend:
[1] = system: COX-2; test: COX-2 mRNA level (qPCR) in cytokine-stimulated Caco-2 cells; format: cell-based, human; conditions: 5–80 μM, 6 h cytokine stimulation, maximum effect
Method: (§1) Confluent Caco-2 cells were stimulated with a cocktail of cytokines comprised of tumour necrosis factor-α (TNF-α, 20 ng mL^−1), interleukin-1β (IL-1β, 40 ng mL^−1), interferon-γ (IFN-γ, 10 ng mL^−1) and lipopolysaccharide (LPS, 100 ng mL^−1) in the presence or absence of BET, VUL and IND treatments (5–80 µM) for 6 h. With the completion of incubations, cells were washed with cold DPBS and lysed with TRIsure reagent (Scientific Laboratory Supplies Ltd.). Total RNA of cell samples was extracted in accordance with the manufacturer’s instructions. After resuspending the RNA pellets in DEPC water, concentration and quality were determined using the NanoQuant plate (Tecan Spark 10M plate reader) at 260 and 280 nm. Reverse transcription of RNA was achieved using the iScript™ cDNA Synthesis Kit (Bio-Rad). Transcription levels of target genes—interleukin 6 (IL-6), IL-8, COX-2, iNOS, NADPH oxidase 1 (NOX-1), NAD(P)H quinone dehydrogenase 1 (NQO-1), heme oxygenase 1 (HO-1), glutamate-cysteine ligase catalytic subunit (GCLC), glutathione peroxidase 1 (GPX-1), glutathione S-transferase 1 (GSTA-1) and GSTP-1 were evaluated using SybrGreen based reagent (SensiFast SYBR Green, SLS Ltd., Galveston, TX, USA) via real-time qPCR using StepOne Plus Real-Time PCR System (Applied Biosystems, Nottingham, UK). […]

[2] = system: differentiated Caco-2 cells; test: Trans-epithelial transport (AP-to-BL) across differentiated Caco-2 monolayer; format: in vitro ADME, human; conditions: AP-to-BL
Method: (§2) Trans-epithelial transport of purified betalains (AP-to-BL) was investigated in differentiated Caco-2 cells in 12-well plate transwell inserts (PET membrane, 0.4 μm pore size, Sarstedt) at an initial density of 1 × 10^5 cells cm^−2. Complete medium was added in both apical (AP) and basolateral (BL) chambers and was replaced every 2–3 days. Cell membrane integrity was monitored weekly through measurement of trans-epithelial electrical resistance (TEER) across the growth area until full differentiation of the cells after 21 days. During the experiment, Hanks’ balanced salt solution (HBSS) in the apical compartment was adjusted to pH 6.5 with MES (2 mM), while basolateral pH remained at 7.5 [25]. Purified BET, VUL and IND (420–1000 μM) were supplied to the apical side of the membrane and incubated at 37 °C for up to 2 h. As a marker compound of paracellular transport, phenolsulfonaphtalein (5 mM) was also applied to parallel cell membranes in the apical chamber. The study also evaluated the permeability of compounds through the Caco-2 membrane with a loosened tight junction in parallel wells which was achieved by 5-min incubation of differentiated membrane in trypsin EDTA (0.05%, v/v). The basolateral solution was collected and replaced every 30 min until 2 h, under initial rate conditions. The betalain-containing solutions were processed and submitted to LC-MS analysis, while phenolsulfonaphtalein was quantified spectrophotometrically at λ of 430 nm. TEER values were monitored at the beginning and the end of the experiment to check the impact of compounds on monolayer integrity. The apparent permeability coefficients (Papp) were calculated as per Equation (1), where V = volume of basolateral solution, A = cell growth area, C0 = initial concentration of apical betalain and dC/dt = steady-state flux across the monolayer. (1) Papp=1/C0×A·V×dC/dt
(§3) Betalain compounds from the cell culture samples were quantified and identified by an ultra-high-speed LC fitted with a UV-Vis detector (SPD-20A), followed by a single quadrupole MS with an electrospray ionisation source (ESI) (Shimazu, 2020). HPLC separation was performed by a reverse phase C18 column (100 mm × 2.1 mm I.D., 3.5 μm) at the temperature of 35 °C. […] Betacyanins and betaxanthins were detected at the wavelengths of 536 nm and 486 nm, respectively, and their molecular weights were monitored by ESI-MS with positive ion mode. Compounds were identified based on the m/z values and quantified using standard curves with purified betalains, as shown in Supplemental Figure S1.

[3] = as above; format: in vitro ADME, human; conditions: human, Caco-2, 1 mM in AP chamber, apical pH 6.5, basolateral pH 7.5, read-out: Papp (apparent permeability coefficient), absorptive direction AP-to-BL
Method: as §2, §3

[4] = system: GSTM; design: method as in PMID 23769299; conditions: 20 μM, human hepatocytes; cited from earlier work
[5] = system: NOX-1; test: NOX-1 mRNA level (qPCR) in cytokine-stimulated Caco-2 cells; format: cell-based, human; conditions: 5–80 μM, 6 h cytokine stimulation, maximum effect
Method: as §1

[6] = system: Caco-2 cells; test: Intracellular ROS formation (DCFH2-DA) in H2O2-stressed Caco-2 cells; format: cell-based, human; conditions: throughout concentration range 5–80 μM, 200 μM H2O2
Method: The generation of reactive oxygen species (ROS) within Caco-2 cells was determined in 96-well plates with the probe 2′,7′-dichlorodihydrofluorescein diacetate (DCFH2-DA), which is intracellularly deacetylated and oxidised to highly fluorescent 2′,7′-dichlorofluorescein (DCF). DCFH2-DA (30 µM) dissolved in PBS with 1% FBS (v/v) was applied to the confluent Caco-2 cells and incubated for 40 min at 37 °C. After washing, cells were treated with BET, VUL and IND (5–80 μM) for 1 h and subsequently stressed with H2O2 (200 μM) for a further 1 h. The plate was scanned using Tecan Spark 10M^TM with excitation λ of 485 nm and emission λ of 535 nm. Subsequently, the protein content of each well was determined by SRB assay. Briefly, the medium was removed and the cells were washed with PBS and submerged with 50 μL of 0.004% SRB solution (w/v) in 10% trichloroacetic acid (w/v). Cells were incubated at room temperature for 15 min and washed with 1% acetic acid (200 μL, v/v). After treating with Tris base (10 mM, 100 μL), cells were incubated for 5 min under shaking conditions. Finally, the plate was scanned using a Tecan plate reader with excitation λ of 540 nm and emission λ of 590 nm. Results of the ROS assay were normalised to the relative protein content for each well and expressed as the relative fluorescence intensity % (RFI) with respect to the value of positive control.

[7] = system: GCLC; test: GCLC mRNA level (qPCR) in cytokine-stimulated Caco-2 cells; format: cell-based, human; conditions: 5–80 μM, 6 h cytokine stimulation, vs SC
Method: as §1

[8] = system: IL-6; test: IL-6 mRNA level (qPCR) in cytokine-stimulated Caco-2 cells; format: cell-based, human; conditions: 5–80 μM, 6 h cytokine stimulation, maximum effect
Method: (§4) Confluent Caco-2 cells were stimulated with a cocktail of cytokines comprised of tumour necrosis factor-α (TNF-α, 20 ng mL^−1), interleukin-1β (IL-1β, 40 ng mL^−1), interferon-γ (IFN-γ, 10 ng mL^−1) and lipopolysaccharide (LPS, 100 ng mL^−1) in the presence or absence of BET, VUL and IND treatments (5–80 µM) for 6 h. With the completion of incubations, cells were washed with cold DPBS and lysed with TRIsure reagent (Scientific Laboratory Supplies Ltd.). Total RNA of cell samples was extracted in accordance with the manufacturer’s instructions. After resuspending the RNA pellets in DEPC water, concentration and quality were determined using the NanoQuant plate (Tecan Spark 10M plate reader) at 260 and 280 nm. Reverse transcription of RNA was achieved using the iScript™ cDNA Synthesis Kit (Bio-Rad). Transcription levels of target genes—interleukin 6 (IL-6), IL-8, COX-2, iNOS, NADPH oxidase 1 (NOX-1), NAD(P)H quinone dehydrogenase 1 (NQO-1), heme oxygenase 1 (HO-1), glutamate-cysteine ligase catalytic subunit (GCLC), glutathione peroxidase 1 (GPX-1), glutathione S-transferase 1 (GSTA-1) and GSTP-1 were evaluated using SybrGreen based reagent (SensiFast SYBR Green, SLS Ltd., Galveston, TX, USA) via real-time qPCR using StepOne Plus Real-Time PCR System (Applied Biosystems, Nottingham, UK). Primers of target genes were designed and blasted using the NCBI database, whose PCR product sizes were confirmed by 2% agarose gel electrophoresis. The list of primer sequences used in the study is presented in Supplemental Table S1. The calculation of target gene levels was based upon the Livak (2^−ΔΔCT) method with normalisation to the housekeeping gene, β-actin [31].

[9] = system: GPX-1; test: GPX-1 mRNA level (qPCR) in cytokine-stimulated Caco-2 cells; format: cell-based, human; conditions: 5–80 μM, 6 h cytokine stimulation, vs SC
Method: as §1

[10] = design: method as in PMID 18959410; conditions: purified compound; cited from earlier work
[11] = system: NQO-1; design: method as in PMID 23769299; conditions: 20 μM, human hepatocytes; cited from earlier work
[12] = EPR DPPH radical scavenging assay; conditions: 20 μM betalain
Method: (§5) Electron paramagnetic resonance (EPR) with spin trapping was used to determine superoxide and DPPH radical scavenging abilities of betalains reflected by the reduction of relative signal strength. EPR spectra were recorded 1 min after reagent mixing on a JEOL X320 spectrometer (X-band) in glass capillaries (0.8 mm ID). Superoxide assay was carried out by mixing the following solutions in 30% aqueous ethanol as solvent: hypoxanthine (1 mM, 55 μL), 5,5-dimethyl-1-pyrroline-N-oxide (DMPO) (1 M, 15 μL) and deferoxamine (10 mM, 10 μL). Individual betalains (200 and 500 μM) or solvent control were subsequently added in a volume of 10 μL. The reaction was initiated by the addition of 2 U mL^−1 xanthine oxidase (10 μL), achieving 20 and 50 μM as final concentrations of betalains in the mixture.
(§6) The 2,2-diphenyl-1-(2,4,6-trinitrophenyl)hydrazyl (DPPH) assay was conducted by mixing ethanol (40 μL) with 30% aqueous ethanol solutions of DPPH (100 μM, 50 μL) and purified betalains (200 μM, 10 μL), providing the working concentration of betalains as 20 μM. In both assays, acquisition of EPR spectra was started 1 min after reagent mixing. To improve the accuracy of measurements, the signal intensity for the superoxide assay was determined in triplicate by fitting the experimental spectra to the simulated superoxide-DMPO adduct spectra.

[13] = system: differentiated Caco-2 cells; test: Intracellular accumulation in differentiated Caco-2 cells; format: in vitro ADME, human; conditions: 250 μM, 2 h incubation in HBSS
Method: For accumulation experiments, differentiated Caco-2 cells were incubated with purified BET, VUL and IND (250 μM) for 2 h in HBSS. The cell layer was washed twice with DPBS prior to being scraped into methanol, and pigments were subsequently extracted for LC-MS analysis. The total protein content of lysed cells was determined by bicinchoninic acid (BCA) assay (Pierce™ Thermo Scientific) in accordance with the manufacturer’s instructions.
as §3

[14] = system: NQO-1; test: NQO-1 mRNA level (qPCR) in cytokine-stimulated Caco-2 cells; format: cell-based, human; conditions: 5–80 μM, 6 h cytokine stimulation, vs SC
Method: as §1

[15] = system: GSTA-1; test: GSTA-1 mRNA level (qPCR) in cytokine-stimulated Caco-2 cells; format: cell-based, human; conditions: 5–80 μM, 6 h cytokine stimulation, vs SC
Method: as §1

[16] = EPR spin-trapping superoxide radical scavenging assay; conditions: 20, 50 μM betalain
Method: as §5, §6

[17] = system: HO-1; test: HO-1 mRNA level (qPCR) in cytokine-stimulated Caco-2 cells; format: cell-based, human; conditions: 5–80 μM, 6 h cytokine stimulation, vs SC
Method: as §1

[18] = system: GSTP-1; test: GSTP-1 mRNA level (qPCR) in cytokine-stimulated Caco-2 cells; format: cell-based, human; conditions: 5–80 μM, 6 h cytokine stimulation, vs SC
Method: as §1

[19] = system: iNOS; test: iNOS mRNA level (qPCR) in cytokine-stimulated Caco-2 cells; format: cell-based, human; conditions: 5–80 μM, 6 h cytokine stimulation, maximum effect
Method: as §1

[20] = system: IL-8; test: IL-8 mRNA level (qPCR) in cytokine-stimulated Caco-2 cells; format: cell-based, human; conditions: 5–80 μM, 6 h cytokine stimulation, maximum effect
Method: as §4

- Proportion transported within 2 h of total amount applied [2]: 1.0%
- Papp A→B at 2 h, 1 mM [3]: 0.415 ×10⁻⁶ cm/s
- Intracellular accumulation [13]: 0.02 nmol per mg of protein
Compound: O=C(O)C1=C/C(=C/C=[N+]2/c3cc(O)c(O[C@@H]4O[C@H](CO)[C@@H](O)[C@H](O)[C@H]4O)cc3C[C@H]2C(=O)[O-])C[C@@H](C(=O)O)N1 [BET, betanin]
- Attenuation of COX-2 mRNA levels [1]: up to 34%
- Increase of GSTM expression in the baseline [4]: ~100%
- Attenuation of NOX-1 mRNA levels [5]: up to 34%
- Suppression of H2O2-stimulated ROS [6]: < 64%
- Upregulation of GCLC expression [7]: < 33%
- Downregulation of IL-6 expression vs cytokine control (SC) [8]: up to 50%
- Upregulation of GPX-1 expression [9]: < 23%
- Loss along the digestion [10]: up to 70%
- Increase of NQO-1 expression in the baseline [11]: ca. 60%
- Decrease in EPR signal intensity, DPPH assay [12]: < 71%
- Upregulation of NQO-1 expression [14]: < 24%
- Induction of GSTA-1 expression [15]: < 51%
- Decrease in EPR signal intensity, superoxide assay [16]: < 35%
- Upregulation of HO-1 expression [17]: < 24%
- Upregulation of GSTP-1 expression [18]: < 24%
- Reduction of iNOS mRNA levels [19]: < 42%
- Downregulation of IL-8 expression vs cytokine control (SC) [20]: ≤ 39%

— article PMC9405451, “Uptake and Immunomodulatory Properties of Betanin, Vulgaxanthin I and Indicaxanthin towards Caco-2 Intestinal Cells” (Antioxidants, 2022)
